Target: human MRGPRD (Homo sapiens, UniProt Q8TDS7)
Test: MRGPRD antagonist activity, IP-One HTRF assay in CHO cells stably expressing human MRGPRD (versus 100 μM β-Alanine agonist)
Format: cell-based
Protocol: Chinese Hamster Ovary (CHO) cells stably expressing human MRGPRD (Eurofins, San Diego CA) were plated in a 384-well plate at 20,000 cells per well in 12 μL of Optimem (Fisher Scientific 11-058-021). Plates were kept in the incubator at 37° C. overnight. Antagonists were solubilized at a concentration of 10 mM in DMSO, and the agonists were solubilized to stock concentrations of either 50 mM in H2O (β-Alanine) or 10 mM in DMSO (all others) and then diluted in assay buffer (final concentrations of 5.7 mM Tris-HCl, 43 mM NaCl, 50 mM LiCl, pH=8). The concentration of DMSO was normalized across the plate. Antagonists were added to the plate using a Tecan D300 Digital Dispenser at nanoliter/picoliter volumes and 2 μL of agonists in assay buffer were added to each well for a final assay volume of 14 μL. Plates were covered and incubated for 1 h at 37° C. and then for 1 h at room temperature. IP-1 standards and HTRF detection reagents were added according to an IP-One—Gq Kit purchased from Cisbio (part number 621PAPEJ) and incubated in the dark for 1 h at room temperature. Assay plates were read on either a Molecular Devices SpectraMax iD5 plate reader or a BMG ClarioStar plate reader. The HTRF ratio was calculated form the raw data and graphed using GraphPad Prism to calculate IC50 values. Data are expressed as average IC50 values and average percent antagonism calculated as a percent of the maximum efficacy response. For these studies, the variability of the data was assessed by determining the standard error of mean (SEM).
The activity ranges are denoted as follows: “+++++” denotes antagonist activity<100 nM; “++++” denotes antagonist activity between 100 and 500 nM; “+++” denotes activity between 500 and 1000 nM; “++” denotes activity between 1000 and 3000 nM; and “+” denotes activity>3000 nM.

Chain of human MRGPRD (Q8TDS7 whole entry): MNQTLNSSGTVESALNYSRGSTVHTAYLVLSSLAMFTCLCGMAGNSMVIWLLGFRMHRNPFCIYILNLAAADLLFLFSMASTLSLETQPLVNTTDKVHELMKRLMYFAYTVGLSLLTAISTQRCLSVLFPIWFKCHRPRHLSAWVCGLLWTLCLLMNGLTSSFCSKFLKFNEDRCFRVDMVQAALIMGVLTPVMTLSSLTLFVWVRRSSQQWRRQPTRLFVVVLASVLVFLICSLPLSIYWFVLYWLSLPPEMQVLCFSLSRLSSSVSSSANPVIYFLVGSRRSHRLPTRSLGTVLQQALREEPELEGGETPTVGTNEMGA

Structure (SMILES)	IC50 [nM]
Cc1cc(NC(=O)c2nnn(-c3ccc(-c4ccccc4)cc3F)c2C2CC2)ccn1 [Compound 7-21]	100 to 500
Cc1nn(C)c(C)c1-c1ccc(-n2nnc(C(=O)Nc3ccc(NS(C)(=O)=O)cc3)c2C2CC2)cc1 [Compound 9-34]	1000 to 3000
Cc1ccc(CNC(=O)c2nnn(-c3ccc(-c4c(C)nn(C)c4C)cc3)c2C2CC2)cn1 [Compound 15-12]	100 to 500
O=C(NCc1cn[nH]c1)c1nnn(-c2ccc(-c3ccccc3)cc2)c1C1CC1 [Compound 14-36]	1000 to 3000
CO[C@H]1CC[C@H](NC(=O)c2nnn(-c3ccc(-c4ccccc4)cc3)c2C2CC2)CC1 [Compound 14-40]	1000 to 3000
Cn1ncc2c(NC(=O)c3nnn(-c4ccc(-c5ccccc5)cc4)c3C3CC3)cccc21 [Compound 14-63]	1000 to 3000
CC(C)c1ccc(-c2ccc(-n3nnc(C(=O)Nc4ccncc4)c3C3CC3)cc2)cc1 [Compound 7-214]	> 3000
CC(C)c1cc(NC(=O)c2nnn(-c3ccc(-c4ccccc4)cc3)c2C2CC2)ccn1 [Compound 14-16, 1-([1,1′-biphenyl]-4-yl)-5-cyclopropyl-N-(2-isopropylpyridin-4-yl)-1H-1,2,3-triazole-4-carboxamide]	100 to 500
COCc1cccc(-c2ccc(-n3nnc(C(=O)Nc4ccncc4)c3C3CC3)cc2)c1 [Compound 7-167]	1000 to 3000
CCc1cc(NC(=O)c2nnn(-c3ccc(-c4c(C)nn(C)c4C)cc3)c2C2CC2)ccn1 [Compound 9-2]	< 100
Cc1nn(CC(F)(F)F)c(C)c1-c1ccc(-n2nnc(C(=O)Nc3ccncc3)c2C2CC2)cc1 [Compound 7-17]	< 100
CCn1nc(C)c(-c2ccc(-n3nnc(C(=O)Nc4ccncc4)c3C3CC3)cc2)c1C [Compound 7-14]	< 100
O=C(Nc1ccncc1)c1nnn(-c2cccc(-c3ccc(O)cc3)c2)c1C1CC1 [Compound 7-277]	500 to 1000
COc1cc(NC(=O)c2nnn(-c3ccc(-c4ccccc4)cc3)c2C2CC2)ccn1 [Compound 14-50]	1000 to 3000
O=C(NC1(c2ccccc2)CCC1)c1nnn(-c2ccc(-c3ccccc3)cc2)c1C1CC1 [Compound 14-6]	> 3000
N#CCc1ccc(-c2ccc(-n3nnc(C(=O)Nc4ccncc4)c3C3CC3)cc2)cc1 [Compound 7-23]	100 to 500
Cc1cc(-n2nnc(C(=O)Nc3ccncc3)c2C2CC2)ccc1-c1cn(C)nc1C [Compound 7-246]	500 to 1000
Cc1cc(NC(=O)c2nnn(-c3ccc(-c4ccc(C#N)cc4)cc3)c2C(C)C)ccn1 [Compound 17-28]	500 to 1000
Cc1ccc(-n2nnc(C(=O)Nc3ccncc3)c2C2CC2)c(C(F)(F)F)c1 [Compound 4-6]	1000 to 3000
Cc1nn(-c2ccccc2)c(C)c1-c1ccc(-n2nnc(C(=O)Nc3ccncc3)c2C2CC2)cc1 [Compound 7-11]	< 100
Cc1cc(NC(=O)c2nnn(-c3ccc(-c4c(C)nn(C)c4C)cc3)c2C2CC2)ccn1 [Compound 7-12, 5-cyclopropyl-N-(2-methylpyridin-4-yl)-1-(4-(1,3,5-trimethyl-1H-pyrazol-4-yl)phenyl)-1H-1,2,3-triazole-4-carboxamide]	< 100
Cn1ncc2c(NC(=O)c3nnn(-c4ccc(-c5ccccc5)cc4)c3C3CC3)ncnc21 [Compound 14-79]	> 3000
Cc1nn(-c2ccccc2)c(C)c1-c1ccc(-n2nnc(C(=O)N3Cc4cnn(C)c4C3)c2C2CC2)cc1 [Compound 9-29]	500 to 1000
O=C(Nc1ccncc1)c1nnn(-c2ccc(-c3cccc(C(F)(F)F)c3)cc2)c1C1CC1 [Compound 7-155]	500 to 1000
O=C(Nc1ccncc1)c1nnn(-c2ccc(-c3ccc[nH]3)cc2)c1C1CC1 [Compound 7-77]	100 to 500
COc1ccc(-c2ccc(-n3nnc(C(=O)Nc4ccncc4)c3C3CC3)cc2)cc1F [Compound 7-185]	1000 to 3000

Structure (SMILES)	IC50 [nM]
Cc1cc(NC(=O)c2nnn(-c3ccc(-c4ccc(C#N)c(F)c4)cc3)c2C2CC2)cc(C)n1 [Compound 7-87]	100 to 500
O=C(Nc1ccncc1)c1nnn(-c2cccc(-c3ccccc3C(F)(F)F)c2)c1C1CC1 [Compound 7-285]	1000 to 3000
Cc1cc(NC(=O)c2nnn(-c3ccc(-c4ccc(F)nc4)cc3)c2C2CC2)ccn1 [Compound 17-2]	100 to 500
Cc1ccc(-n2nnc(C(=O)Nc3ccnc(C)c3)c2C2CC2)cc1 [Compound 1-4, 5-cyclopropyl-N-(2-methylpyridin-4-yl)-1-(p-tolyl)-1H-1,2,3-triazole-4-carboxamide]	100 to 500
CC(C)Cn1nc(C(F)(F)F)cc1-c1ccc(-n2nnc(C(=O)Nc3ccncc3)c2C2CC2)cc1 [Compound 7-212]	1000 to 3000
CC(=O)c1cccc(-c2ccc(-n3nnc(C(=O)Nc4ccncc4)c3C3CC3)cc2)c1 [Compound 7-80]	100 to 500
CCc1ccc(-n2nnc(C(=O)Nc3ccncc3)c2C2CC2)cc1-c1cccc(C(C)=O)c1 [Compound 7-317]	1000 to 3000
CCn1ccc(-c2cccc(-n3nnc(C(=O)Nc4ccnc(C)c4)c3C3CC3)c2)n1 [Compound 7-262]	500 to 1000
O=C(Nc1ccncc1)c1nnn(-c2cccc(-c3ccccc3O)c2)c1C1CC1 [Compound 7-276]	500 to 1000
CC(C)c1c(C(=O)Nc2ccncc2)nnn1-c1ccc(-c2cnn(C)c2)cc1 [Compound 17-27]	500 to 1000
COc1ccc(C2(NC(=O)c3nnn(-c4ccc(-c5c(C)nn6ccccc56)cc4)c3C(C)C)CC2)cn1 [Compound 19-4]	100 to 500
Cc1nc(-c2ccc(-n3nnc(C(=O)Nc4ccncc4)c3C3CC3)cc2)sc1C [Compound 7-115]	500 to 1000
CC(NC(=O)c1nnn(-c2ccc(-c3ccc(CC#N)cc3)cc2)c1C1CC1)c1cnn(C)c1 (stereo not drawn) [Compound 15-9]	> 3000
O=C(Nc1ccncc1)c1nnn(-c2ccc(-c3cccc(C4CC4)c3)cc2)c1C1CC1 [Compound 7-56]	100 to 500
O=C(Nc1ccncc1)c1nnn(-c2cccc(-c3ccc(-c4ccccc4)cc3)c2)c1C1CC1 [Compound 7-312]	1000 to 3000
CC(C)Oc1cccc(-c2ccc(-n3nnc(C(=O)Nc4ccncc4)c3C3CC3)cc2)c1 [Compound 7-148]	500 to 1000
Cc1c(-c2ccc(-n3nnc(C(=O)Nc4ccncc4)c3C3CC3)cc2)cnn1C [Compound 7-50]	100 to 500
CCc1ccc(-c2ccc(-n3nnc(C(=O)Nc4ccncc4)c3C3CC3)cc2)cc1 [Compound 7-199]	1000 to 3000
Cc1ccc(-n2nnc(C(=O)Nc3ccnc(C)c3)c2C2CC2)c(Cl)c1 [Compound 4-2, 1-(2-chloro-4-methylphenyl)-5-cyclopropyl-N-(2-methylpyridin-4-yl)-1H-1,2,3-triazole-4-carboxamide]	100 to 500
O=C(Nc1ccncc1)c1nnn(-c2cccc(-c3cnn(CC4CC4)c3)c2)c1C1CC1 [Compound 7-241]	500 to 1000
O=C(Nc1ccncc1)c1nnn(-c2ccc(-c3cccc(Cl)c3)cc2)c1C1CC1 [Compound 7-101]	100 to 500
O=C(Nc1ccncc1)c1nnn(-c2ccc(-c3ccc4[nH]ccc4c3)cc2)c1C1CC1 [Compound 7-196]	1000 to 3000
O=C(Nc1ccncc1)c1nnn(-c2ccc(-c3cccc(CO)c3)cc2)c1C1CC1 [Compound 7-171]	1000 to 3000
Cc1cc(NC(=O)c2nnn(-c3ccc(-c4ccccc4)c(F)c3)c2C2CC2)ccn1 [Compound 7-205]	1000 to 3000
O=C(NC1CC(F)(F)C1)c1nnn(-c2ccc(-c3ccccc3)cc2)c1C1CC1 [Compound 14-56]	1000 to 3000

Source: patent publication US20260001871A1, “TRIAZOLE DERIVATIVES AS MODULATORS OF MAS-RELATED G-PROTEIN RECEPTOR D” (ESCIENT PHARMACEUTICALS, INC., priority 2022, published 2026)
